# Reference: patent US20260053931A1, “MDM2 TARGETING PROTACS” (THE WISTAR INSTITUTE OF ANATOMY AND BIOLOGY, priority 2023, published 2026)
# Legend:
# [1] = test system: TNBC patient mammospheres; experiment: Patient TNBC 3D mammosphere cultures; format: cell-based, human
# Procedure: FIGS. 27A-27E show TP53 mutant TNBC patient-derived explants undergo apoptosis following treatment with the MDM2-PROTAC YX-02-030. A. TP53 sequenced in five fresh TNBC patient samples and used in explant and 3D mammosphere cultures. B-C. TNBC patient-derived explants were treated with the compounds indicated and Western blotting (B) and immunohistochemistry (IHC) of FFPE sections for cleaved Caspase-3 (C, n=3 paired patient samples) were performed. Representative images of H&E and cleaved Caspase-3 (CC3) IHC shown, including normal breast epithelium treated with MDM2-PROTAC YX-02-030; scale bar 300 m. D-E. Mammosphere cultures were established from TNBC patient samples, treated with the indicated compounds, and live-cell detection of Caspase-3/7 activity (D, quadruplicate) and mammosphere survival/ATP production (E, quadruplicate) were measured.
# For three of the patient TNBC tumor samples there was enough tissue to also establish 3D mammosphere cultures, and for one of these patients, normal breast epithelial tissue was also received that generated loose cell clusters.
# [2] = Mouse liver microsomal stability; format: in vitro ADME; details: mouse liver microsomes, 0.5 μM compound
# Procedure: To translate cell-based activity to in vivo efficacy, the Mdm2 PROTACs were evaluated for metabolic stability and plasma compound levels after IP injection in the mouse. Mouse liver microsome stability was obtained for lead compounds (Alliance Pharma, Inc; Malvern PA) as a predictive measure for suitable exposure in a mouse pharmacokinetic study. In brief, test compounds (0.5 μM) are incubated with liver microsomes ([…]) and an NADPH-regenerating system (cofactor solution) and samples are taken at various timepoints, quenched with an acetonitrile solution containing an internal standard, then analyzed by LC-MS/MS. […] Mouse pharmacokinetic studies for YX-02-030 and YX-02-288 were completed. Mouse plasma levels were evaluated following intraperitoneal (10 mg/kg) administration. Plasma was collected at timepoints 0.25 h, 0.5 h, 1 h, 2 h, 4 h and 6 h after Mdm2 PROTAC injection. Plasma was deproteinized and analyzed for compound using LC-MS/MS methods. Three mice were used for each time point and one control animal (Alliance Pharma Inc, Malvern PA).
# [3] = mammospheres from three patient tumors
smiles,measurement,setting,value
CCOc1cc(C(C)(C)C)ccc1C1=N[C@](C)(c2ccc(Cl)cc2)[C@](C)(c2ccc(Cl)cc2)N1C(=O)N1CCN(CC(=O)NCCOCCOCCOCC(=O)N[C@H](C(=O)N2C[C@H](O)C[C@H]2C(=O)NCc2ccc(-c3scnc3C)cc2)C(C)(C)C)CC1 (racemic) [YX-02-030],Caspase-3/7 activity,[1]; [3],significantly increased Caspase-3/7 activity
same,mammosphere survival,[1]; [3],reduced survival
same,effect on normal breast epithelial clusters,[1]; normal breast epithelial tissue of one patient,remained largely unaffected
same,half-life at 0.5 μM,[2],25.9 min
